Laboratory results as given in PMC7029851, “Antibacterial activity of novel dual bacterial DNA type II topoisomerase inhibitors” (PLoS ONE, 2020).
pIC50: −log10 of the molar value. In brackets after ≈: the same amount, converted by molar mass. Where two headings read alike, the source gives them in different places.

What was measured:
C. difficile ATCC 700057 = experiment: MIC, broth microdilution; type: cell-based, Clostridium difficile; conditions: Clostridioides difficile, ATCC700057
Experimental: MICs were determined by the broth microdilution method (the agar dilution method was used only for N. gonorrhoeae) according to CLSI guidelines. […] The MIC values of antibiotics used in clinical practice were interpreted according to the susceptibility interpretive criteria reported in the appropriate CLSI Tables (M100-S25, CLSI, 2015).

S. aureus ATCC 29213 [1] = experiment: Minimal bactericidal concentration; type: cell-based, Staphylococcus aureus
Experimental: (§1) Minimal bactericidal concentrations (MBCs) were determined according to the procedure described by Knapp. Viable counts were performed after plates were incubated at 37°C for 24 hours. The MBC was defined as the lowest concentration that reduced the viability of the initial bacterial inoculum by ≥99.9%.

S. aureus BAA-1720 = experiment: Minimal bactericidal concentration; type: cell-based, Staphylococcus aureus
Experimental: as §1

E. coli ATCC 25922 [2] = experiment: Time-kill assay; type: cell-based, Escherichia coli; conditions: 1× to 4× MIC, over 24 hours
Experimental: (§2) Time-kill experiments were performed according to the procedure reported by Knapp. […] A drug-free control was included in each experiment. The bacterial cultures were standardized to obtain an initial inoculum that ranged from 5×10^5 to 5×10^6 CFU/ml. The cultures were incubated at 37°C in a shaking bath. At 0, 2, 4, 8 and 24-hour intervals, viable counts were performed by spotting (in triplicate) 10 μl aliquots of suitable dilutions of the cultures onto Mueller-Hinton agar (MHA, Oxoid, Basingstoke, UK) plates. After incubation at 37°C for 24 hours, the bactericidal activity, namely, the ability to reduce the initial inoculum by 3 log10 CFU/ml, was assessed for each tested concentration over time.

[3] = tested on: C. difficile clinical isolates (n = 21); experiment: MIC, multidrug-resistant clinical isolates; type: cell-based, Clostridium difficile; conditions: Clostridioides difficile, C. difficile clinical isolates (n = 21)
Experimental: (§3) The bacterial reference strains used in this study were purchased from ATCC (American Type Culture Collection) via LGC Standards (Middlesex, UK). […] Clinical MDR isolates were provided by Aptuit, the IHMA Europa Sàrl repository (Epalinges, Switzerland) and the Statens Serum Institute (Copenhagen, Denmark).
(§4) MICs were determined by the broth microdilution method (the agar dilution method was used only for N. gonorrhoeae) according to CLSI guidelines.
(§5) The results obtained using clinical isolates are reported as MIC50 and MIC90 values.

[4] = tested on: E. coli clinical isolates (n = 36); experiment: MIC, multidrug-resistant clinical isolates; type: cell-based, Escherichia coli; conditions: Escherichia coli, E. coli MDR clinical isolates (n = 36)
Experimental: as §3, §4, §5

S. aureus ATCC BAA-1720 = experiment: Time-kill assay; type: cell-based, Staphylococcus aureus
Experimental: as §2

S. aureus ATCC 29213 [5] = experiment: Time-kill assay; type: cell-based, Staphylococcus aureus
Experimental: as §2

[6] = tested on: H. influenzae AcrA- mutant; experiment: microbe, parasite or virus in culture; type: cell-based; conditions: Haemophilus influenzae
Outline: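 MICs against efflux-deficient mutant strains were determined by broth microdilution following CLSI guidelines.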

S. pyogenes APV00074 = experiment: MIC, broth microdilution; type: cell-based; conditions: Streptococcus pyogenes; S. pyogenes APV00074, ciprofloxacin-susceptible
Experimental: as §4

E. coli 4SI = experiment: MIC, broth microdilution; type: cell-based; conditions: Escherichia coli, ciprofloxacin-resistant
Experimental: as §4

A. baumannii ATCC 19606 = experiment: MIC, broth microdilution; type: cell-based; conditions: Acinetobacter baumannii, ATCC19606; A. baumannii ATCC 19606, ciprofloxacin-susceptible
Experimental: as §4

S. pyogenes APV00083 = experiment: MIC, broth microdilution; type: cell-based; conditions: Streptococcus pyogenes; S. pyogenes APV00083, ciprofloxacin-susceptible
Experimental: as §4

A. baumannii APV00473 = experiment: MIC, broth microdilution; type: cell-based; conditions: Acinetobacter baumannii; A. baumannii APV00473, ciprofloxacin-resistant
Experimental: as §4

S. aureus ATCC 29213 [7] = experiment: Post-antibiotic effect (PAE); type: cell-based, Staphylococcus aureus; conditions: 1-hour exposure, range over 1×, 4× and 16× MIC
Experimental: (§6) A drug-free control was included in each experiment. After being exposed to the drug for 1 hour, viable counts were conducted in triplicate by spotting aliquots (10 μl) of suitable dilutions onto MHA plates. The drugs were removed by diluting the bacterial cultures (1:1000) in Cation-Adjusted Mueller-Hinton Broth (CAMHB; Sigma-Aldrich). The diluted cultures were incubated in a shaking bath at 37°C. To monitor the ongoing suppression of bacterial growth over time (5 hours), aliquots from each broth culture were periodically collected, diluted and plated to perform subsequent viable counts (in triplicate).

[8] = tested on: S. aureus clinical isolates (n = 10); experiment: microbe, parasite or virus in culture; type: cell-based, Staphylococcus aureus
Experimental: as §3, §4, §5

E. coli ATCC 25922 [9] = experiment: Post-antibiotic effect (PAE); type: cell-based, Escherichia coli; conditions: 1× and 4× MIC
Experimental: as §6

[10] = tested on: A. baumannii clinical isolates (n = 10); experiment: microbe, parasite or virus in culture; type: cell-based, Acinetobacter baumannii
Experimental: as §3, §4, §5

S. aureus ATCC 29213 [11] = type: cell-based, Staphylococcus aureus
hERG channel = biological target: T1, hERG channel (Homo sapiens, UniProt Q12809); experiment: hERG automated patch clamp assay; type: cell-based; conditions: CHO-K1, read-out: IC50 against hERG channels
T1 construct: expressed in transfected cells; host or cells: CHO-K1
Excerpt: hERG automated patch clamp assay. The human recombinant ERG CHO-K1 cell line was used in an automated patch clamp assay (qPatch system) to evaluate the hERG channel blockade potential of compounds 1 and 2 [36]. Concentration (log) response curves were fitted to a logistic equation to generate estimates of the 50% inhibitory value.

[12] = tested on: S. aureus ATCC 29213 and S. aureus BAA-1720; experiment: MIC in the presence of 20% human serum
[13] = S. aureus MDR clinical isolates (n = 10)

T1 sequence (Q12809 whole entry): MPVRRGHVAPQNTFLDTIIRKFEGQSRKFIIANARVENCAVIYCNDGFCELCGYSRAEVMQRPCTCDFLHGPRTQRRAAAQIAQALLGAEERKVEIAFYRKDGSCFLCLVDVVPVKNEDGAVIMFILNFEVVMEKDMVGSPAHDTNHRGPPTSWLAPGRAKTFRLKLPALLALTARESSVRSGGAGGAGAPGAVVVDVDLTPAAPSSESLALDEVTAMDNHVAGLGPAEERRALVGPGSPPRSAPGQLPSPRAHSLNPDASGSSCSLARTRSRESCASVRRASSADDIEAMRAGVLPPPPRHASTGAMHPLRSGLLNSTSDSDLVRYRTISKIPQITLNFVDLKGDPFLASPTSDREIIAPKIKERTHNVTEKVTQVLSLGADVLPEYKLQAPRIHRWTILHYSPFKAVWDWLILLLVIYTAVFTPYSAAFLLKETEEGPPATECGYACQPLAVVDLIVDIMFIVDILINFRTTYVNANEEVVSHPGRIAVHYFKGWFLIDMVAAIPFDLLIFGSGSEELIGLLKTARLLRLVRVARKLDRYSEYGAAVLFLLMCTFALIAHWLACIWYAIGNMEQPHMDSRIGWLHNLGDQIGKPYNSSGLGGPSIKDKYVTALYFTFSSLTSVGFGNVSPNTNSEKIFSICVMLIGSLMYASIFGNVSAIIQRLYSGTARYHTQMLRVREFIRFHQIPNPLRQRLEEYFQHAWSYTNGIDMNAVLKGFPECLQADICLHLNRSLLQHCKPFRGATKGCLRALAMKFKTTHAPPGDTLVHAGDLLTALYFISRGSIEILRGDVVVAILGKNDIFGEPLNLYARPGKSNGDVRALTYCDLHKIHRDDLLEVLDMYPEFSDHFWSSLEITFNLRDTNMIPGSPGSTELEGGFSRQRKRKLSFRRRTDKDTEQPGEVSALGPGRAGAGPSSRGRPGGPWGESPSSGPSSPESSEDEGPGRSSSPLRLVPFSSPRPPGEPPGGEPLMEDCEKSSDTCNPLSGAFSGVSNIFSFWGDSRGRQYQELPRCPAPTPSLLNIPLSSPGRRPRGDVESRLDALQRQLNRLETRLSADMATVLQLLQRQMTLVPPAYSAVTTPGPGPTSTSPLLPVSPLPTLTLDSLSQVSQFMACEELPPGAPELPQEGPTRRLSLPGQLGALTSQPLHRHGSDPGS

## O=C1COc2ncc(F)cc2N1[C@H]1CC[C@H](NCc2cc3c(=O)oc4ccc(F)cc4c3[nH]2)CC1 [Compound 1, 8-fluoro-2-({[trans-4-(7-fluoro-2-oxo-2,3-dihydro-1H-pyrido[2,3-b][1,4]oxazin-1-yl)cyclohexyl]amino}methyl)[1]benzopyrano[4,3-b]pyrrol-4(1H)-one]
C. difficile ATCC 700057
  MIC: 1 µg/mL (≈ 2.08 µM)
S. aureus ATCC 29213 [1]
  MBC/MIC: 16
S. aureus ATCC 29213 [1]; Staphylococcus aureus, ATCC29213, ≥99.9% reduction of inoculum
  MBC: 4 µg/mL (≈ 8.33 µM)
S. aureus BAA-1720
  MBC/MIC: 2
S. aureus BAA-1720; Staphylococcus aureus, BAA1720, ≥99.9% reduction of inoculum
  MBC: 1 µg/mL (≈ 2.08 µM)
E. coli ATCC 25922 [2]
  Bactericidal activity in time-kill (reduction of 3 log10 CFU/ml): bactericidal effect
[3]; read-out: MIC50
  MIC50: 1 µg/mL (≈ 2.08 µM)
[3]; read-out: MIC90
  MIC90: 1 µg/mL (≈ 2.08 µM)
[3]; read-out: MIC range
  MIC: 0.25 to 2 µg/mL (≈ 0.52 to 4.16 µM)
[4]
  MIC: 0.25 to 16 µg/mL (≈ 0.52 to 33.3 µM)
[4]; read-out: MIC50
  MIC50: 1 µg/mL (≈ 2.08 µM)
[4]; read-out: MIC90
  MIC90: 1 µg/mL (≈ 2.08 µM)
S. aureus ATCC BAA-1720; 1× to 4× MIC, over 24 hours
  Bactericidal activity in time-kill (reduction of 3 log10 CFU/ml): bactericidal effect
S. aureus ATCC BAA-1720; 4× MIC, after a 24 hour incubation
  Concentration with bactericidal activity in time-kill: 2 µg/mL
S. aureus ATCC 29213 [5]; 1× to 4× MIC (compound 1 also 8× and 16× MIC), over 24 hours
  Bactericidal activity in time-kill (reduction of 3 log10 CFU/ml): bactericidal effect
S. aureus ATCC 29213 [5]; 8× and 16× MIC, after 24 hour incubation
  Bactericidal activity in time-kill: effective
S. aureus ATCC 29213 [5]; concentrations up to 4× MIC
  Bactericidal activity in time-kill: no bactericidal activity
[6]
  MIC: ≤ 0.016 µg/mL
S. pyogenes APV00074
  MIC: 0.5 µg/mL (≈ 1.04 µM)
E. coli 4SI
  MIC: 0.25 µg/mL (≈ 0.52 µM)
A. baumannii ATCC 19606
  MIC: ≤ 0.06 µg/mL
S. pyogenes APV00083
  MIC: 1 µg/mL (≈ 2.08 µM)
A. baumannii APV00473
  MIC: ≤ 0.06 µg/mL
S. aureus ATCC 29213 [7]
  PAE: 54 to 58 min
[8]; [13]
  MIC50: 0.125 µg/mL (≈ 0.26 µM)
  MIC90: 0.5 µg/mL (≈ 1.04 µM)
  MIC range: 0.12 to 0.5 µg/mL
[8]; Staphylococcus aureus, MRSA, S. aureus APV0063, MRSA
  MIC: 0.12 µg/mL (≈ 0.25 µM)
[8]; Staphylococcus aureus, MRSA, S. aureus APV0064, MRSA
  MIC: 0.12 µg/mL (≈ 0.25 µM)
[8]; Staphylococcus aureus, MRSA, S. aureus APV0065, MRSA
  MIC: 0.12 µg/mL (≈ 0.25 µM)
[8]; Staphylococcus aureus, S. aureus APV00045, M (macrolide resistance)
  MIC: 0.5 µg/mL (≈ 1.04 µM)
[8]; Staphylococcus aureus, S. aureus APV0048, MLSi
  MIC: 0.25 µg/mL (≈ 0.52 µM)
[8]; Staphylococcus aureus, S. aureus APV0049, MLSi
  MIC: 0.5 µg/mL (≈ 1.04 µM)
[8]; Staphylococcus aureus, S. aureus APV0052, MLSc
  MIC: 0.5 µg/mL (≈ 1.04 µM)
[8]; Staphylococcus aureus, S. aureus APV0053, MLSc
  MIC: 0.25 µg/mL (≈ 0.52 µM)
[8]; Staphylococcus aureus, S. aureus APV00280, M (macrolide resistance)
  MIC: 0.12 µg/mL (≈ 0.25 µM)
[8]; Staphylococcus aureus, S. aureus APV00281, M (macrolide resistance)
  MIC: 0.12 µg/mL (≈ 0.25 µM)
[8]; Staphylococcus aureus, S. aureus MDR clinical isolates (n = 10), read-out: MIC50
  MIC50: 0.12 µg/mL (≈ 0.25 µM)
[8]; Staphylococcus aureus, S. aureus MDR clinical isolates (n = 10), read-out: MIC90
  MIC90: 0.5 µg/mL (≈ 1.04 µM)
E. coli ATCC 25922 [9]
  PAE compared with ciprofloxacin: consistently higher
[10]
  MIC range: ≤0.06 to 0.12 µg/mL
[10]; Acinetobacter baumannii
  MIC50: 0.12 µg/mL (≈ 0.25 µM)
  MIC90: 0.12 µg/mL (≈ 0.25 µM)
S. aureus ATCC 29213 [11]; S. aureus ATCC 29213, 2×MIC
  In vitro frequency of resistant mutants: TNTC
S. aureus ATCC 29213 [11]; S. aureus ATCC 29213, 4×MIC
  In vitro frequency of resistant mutants: 1.4×10^−7
hERG channel
  pIC50: 5.05
[12]
  Change of MIC in the presence of 20% human serum: two-fold increase
